Columns and labels:
[1] = test system: L. (L.) infantum promastigotes; test: in vitro activity against promastigote forms of L. (L.) infantum; assay type: cell-based, Leishmania (L.) infantum; conditions: Leishmania infantum; L. (L.) infantum promastigotes; read-out: Ec50 Promastigote (μm) ± SD
Experimental: (§1) Evaluation of in vitro activity against promastigote and amastigote forms of L. (L.) infantum was performed as previously reported assays.[40]−[43] The CC50 and EC50 values were calculated using sigmoidal dose–response curves using Graph Pad Prism 5.0 software. One-way ANOVA testing with Tukey’s multiple comparison tests were used for evaluation of the statistical significance (p-value) of differences between the samples, which were tested in duplicate and all assays were repeated at least twice.

[2] = test system: L. (L.) infantum intracellular amastigotes; test: ex-vivo assay using intracellular amastigotes of L. (L.) infantum; assay type: cell-based, Leishmania (L.) infantum; conditions: for S.I. amastigote (selectivity index): CC50 against NCTC cells/EC50 against amastigotes; for EC50: Leishmania infantum, L. (L.) infantum intracellular amastigotes, read-out: Ec50 Amastigote (μm) ± SD
Experimental: as §1

[3] = test system: L. (L.) infantum promastigotes; assay type: cell-based, Leishmania (L.) infantum; conditions: 9 at 141.5 μM, 10 at 110.1 μM, after 240 min
Experimental: Figure 5 Evaluation of ROS in promastigotes of L. (L.) infantum treated with compounds 9 (141.5 μM) or 10 (110.1 μM). […]
Measurements of ROS were conducted as previously reported.[48] Briefly, promastigotes were treated with compounds 9 (141.5 μM) or 10 (110.1 μM) in HBSS+Glu at 24 °C using H2DCFDA (Molecular Probes). Fluorescence was measured using a fluorimetric microplate reader (FilterMax F5Multi-Mode, Molecular Devices) with excitation and emission filters at 485 and 520 nm, respectively.[48] Untreated and treated parasites (H2O2 - 40 μM) were used as negative and positive controls, respectively.

[4] = test system: L. (L.) infantum promastigotes; test: parasite protein spectral profiling (MALDI-TOF/MS); assay type: cell-based, Leishmania (L.) infantum; conditions: 9 at 141.5 μM, 10 at 110.1 μM, 24 h incubation
Experimental: Finally, the protein variations of Leishmania after treatment with compounds 9 and 10 were investigated using MALDI-TOF/MS analysis.[37],[38] […] Panel I. Promastigotes were incubated with compound 9 (141.5 μM), compound 10 (110.1 μM). Miltefosine was used as positive control whereas untreated parasites were used as a negative control. The peaks observed at m/z 6,153 and m/z 7,187 (blue) allow the identification of the Leishmania subgenus. Increases in peak intensity resulting from the incubation of promastigotes with compound 9 or 10 can be observed at m/z 3,081, 5,542, and 11,079 (red). Panel II. A schematic gel showing mass spectra in the m/z 2,000–20,000 range (B, D, F, H); raw spectra are shown in blue (A, C, E, G), whereas spectra generated after normalization, smoothing, and baseline subtraction are shown in red. (A) and (B), results from untreated promastigotes (negative control); (C) and (D); results from promastigotes incubated with compound 9; (E) and (F), results from promastigotes incubated with compound 10; and (G) and (H) results from promastigotes incubated with miltefosine (standard treatment drug and positive control). MALDI-TOF/MS was used to investigate protein changes in stationary-phase L. (L.) infantum promastigotes that were induced by treatment with compound 9 (141.5 μM), compound 10 (110.1 μM), or the standard drug miltefosine. […]

[5] = in vitro mammalian toxicity against NCTC cells; assay type: cell-based; conditions: 50% cytotoxic concentration, read-out: Cc50 Nctc (μm) ± SD
Experimental: Evaluation of in vitro mammalian toxicity against NCTC cells was performed as previously described.[40] The selectivity index was determined using the following equation: CC50 against NCTC cells/EC50 against amastigotes.[44] The CC50 and EC50 values were calculated using sigmoidal dose–response curves using Graph Pad Prism 5.0 software. One-way ANOVA testing with Tukey’s multiple comparison tests were used for evaluation of the statistical significance (p-value) of differences between the samples, which were tested in duplicate and all assays were repeated at least twice.

[6] = test system: L. (L.) infantum promastigotes; test: acidocalcisome alterations, acridine orange; assay type: cell-based, Leishmania (L.) infantum; conditions: 9 at 141.5 μM (20 min), 10 at 110.1 μM (significant from 60 min onward)
From the text: Acidocalcisomes are intracellular organelles that are characterized by acidity and high calcium concentrations due to the proton and calcium pumps.[33] In trypanosomatids, these organelles are rich in short-chain polyphosphates and occupy a small proportion (1 to 2%) of each cell’s volume.[34] In these parasites, the acidocalcisomes are responsible for capturing and storing calcium in large quantities, which is essential for cellular functioning.[35] In our study, we investigated possible changes resulting from treatment with compounds in acidocalcisomes, especially concerning intracellular calcium. Acridine orange was used as a fluorescent probe to evaluate changes in the acidocalcisomes of L. (L.) infantum promastigotes. Alkalinization of these organelles results in the release of the probe, altering the fluorescence.[36] […] These effects were compared with those of the positive (nigericin) and negative (untreated parasites) controls. Figure 8 Acidocalcisome alkalization in L. (L.) infantum treated with compounds 9 (141.5 μM - A) or 10 (110.1 μM - B). […] Fluorescence is represented as a percentage of the fluorescence in the positive control with nigericin at 20 min (100%). ***p = 0.003, **p = 0.0021, **p = 0.05. […] The fluorescence was measured in a spectrofluorimeter with excitation an emission at […], respectively. […]

Row | Structure (SMILES) | EC50 [1] | S.I. amastigote (selectivity index) [2] | EC50 [2] | ROS levels compared with negative control (H2DCFDA) [3] | MALDI-TOF/MS protein spectral profile compared with untreated parasites [4] | CC50 [5] | effect on acidocalcisomes (acridine orange fluorescence) [6]
1 | CCCCC(CC)CNC(=O)c1ccc(Cl)cc1 (centres unmarked) [Compound 9, N-(2-Ethylhexyl)-4-chlorobenzamide] | 41.9 ± 2.1 µM | >15.7 | 12.7 ± 4.9 µM | significantly reduced ROS levels | increased the intensity of the spectral peaks | > 200 µM | alkalinization of the acidocalcisomes
2 | CCCCC(CC)CNC(=O)c1ccc([N+](=O)[O-])cc1 (centres unmarked) [Compound 10, N-(2-Ethylhexyl)-4-nitrobenzamide] | 44.3 ± 0.4 µM | >16.4 | 12.2 ± 7.2 µM | significantly reduced ROS levels | increased the intensity of the spectral peaks | > 200 µM | progressive and continuous acidification of these organelles
